Results taken from patent publication US20240374564A1, “NOVEL SEROTONIN DERIVATIVES AND THEIR USES FOR TREATING IRON-ASSOCIATED DISORDERS” (priority 2021, published 2024).

How the values were obtained:
Hbb^Th1/th1 mice [1] = assay: Model 1 Hbb^Th1/th1 mice, first round: red blood cells production and iron overload; assay type: in vivo, mouse; settings: for RBC count / hemoglobin / hematocrit contents: Ip injection; for RBC count: day 1 to 5, FIG. 1A; for hemoglobin: day 1 to 5, FIG. 1B; for hematocrit contents: day 1 to 5, FIG. 1C; for iron content in bone marrow / iron content in spleen: day 5 after sacrifice, FIG. 1D
Excerpt: (§1) Hbb^th1/th1 mice carry a 3.7-kb homozygous spontaneous deletion that eliminates the Hemoglobin Subunit Beta (HBB) gene and 2 kb of the 5′ flanking region, including the promoter. On the basis of genetic and hematological criteria, these mice constitute the first animal model of beta-thalassemia.
(§2) Mouse models Hbb^Th1/Th1 with ineffective erythropoiesis and iron overload received intraperitoneal (Ip) injection of A1 or A3 derivatives starting on day 0.
(§3) In a first round of experiments, a complete red blood cells count (RBC) was achieved on day 1, day 2 and day 5.
(§4) On day 5, the animals were sacrificed and histology of their organs and iron measurement in organs was carried out.

[2] = test system: skin fibroblasts from FA/BPAN patients; assay: Western blot analysis of skin fibroblasts from FA/BPAN patients treated with ferric ammonium citrate; assay type: cell-based, human; settings: iron overload (FAC 100 uM)
Protocol: Further tests were carried out on skin fibroblasts from Friedreich ataxia and Beta-propeller protein-associated neurodegeneration (BPAN) patients, to assess in particular the effects of the compounds of the invention on iron accumulation in both the cytosol and mitochondria of said fibroblasts.
Cultured skin fibroblasts from Friedreich ataxia patients were used as described in Petit et al., Blood. 2021; 137 (15): 2090-2102 and Ingrassia et al., Front Genet 2017 Feb. 17; 8:18.

Tph1 KO mice [3] = assay: Model 2 Tph1 KO mice, second round: iron distribution, FACS, ferritin; assay type: in vivo, mouse; set-up: condition of the mice compared with controls: dose or concentration left out as unconfirmed
Excerpt: (§5) This model is a peripheral serotonin deficient mice. It is a mouse model of low risk myelodysplastic syndrome, with ineffective erythropoiesis, light anemia, iron overload (spleen), abnormal red blood cells and apoptosis of proerythroblasts (see Côté et al., PNAS, 2003, 100 (23), 13525-13530).
(§6) Mouse models Tph1 KO with ineffective erythropoiesis and iron overload received intraperitoneal (Ip) injection of A1, A3, A4 derivatives or serotonin starting on day 0.
(§7) In a second round of experiments, a complete red blood cells count (RBC) was achieved on day 2 day 5, day 10, day 15, day 20, day 25 and day 30. 4 mice were sacrificed on day 5 and every 5 days afterward for toxicity tests, Flow Cytometry Analysis and FACS (fluorescence-activated single cell sorting) essentially on bone marrow and spleen, biochemical analysis, iron status (organs, serum and urines), and histology.

Tph1 KO mice [4] = assay: Model 2 Tph1 KO mice, first round: red blood cells production and iron overload; assay type: in vivo, mouse; settings: for anemic phenotype / RBC count / hemoglobin / hematocrit contents / heme content in red blood cells / mean cellular volume (MCV): Ip injection; for RBC count: day 1 to 5, FIG. 2A; for hemoglobin: day 1 to 5, FIG. 2B; for hematocrit contents: day 1 to 5, FIG. 2C; for heme content in red blood cells: day 1 to 5, FIG. 2D; for mean cellular volume (MCV): day 1 to 5, FIG. 2E; for iron content in spleen / iron content in bone marrow: day 5 after sacrifice; for iron content in spleen: FIG. 2F; for iron content in bone marrow: FIG. 2G
Excerpt: as §5, §6, §3, §4

Hbb^Th1/th1 mice [5] = assay: Model 1 Hbb^Th1/th1 mice, second round: FACS, RBC, body iron, urinary ferritin; assay type: in vivo, mouse; set-up: condition of the mice compared with control: dose or concentration left out as unconfirmed
Excerpt: as §1, §2, §7
ProE and Ebaso are part of phases I-II, EBaso and LBaso are part of phases III-IVa, Poly and Ortho are part of phases IVb-V of cells differentiation. The mature stage is also called “acido”.

[6] = test system: cells from beta-thalassemic patients; assay: FACS analysis in cells from beta-thalassemic patients; assay type: cell-based, human; settings: cells from beta-thalassemic patients (n=3), FIG. 8D
Protocol: In vitro tests were carried out on cells derived from blood of β-thalassemic patients before transfusion

Hamp KO mice = assay: Model 3 Hamp KO mice: iron overload; assay type: in vivo, mouse
Excerpt: Hepcidin, encoded by the HAMP gene, is the main regulator of iron homeostasis, and its expression is tightly regulated by signals including iron levels, erythropoietic activity, hypoxia, and inflammation.
It is a mouse model of hemochromatosis. Hepcidin deficient mice progressively develop multivisceral iron overload; plasma iron overcomes transferrin binding capacity, and nontransferrin-bound iron accumulates in various tissues including pancreas and heart (see Nicolas et al., PNAS 2001, 98 (15), 8780-8785).
Mouse model of iron overload without ineffective erythropoiesis (Hamp KO) received intraperitoneal (Ip) injection of A3 derivatives or serotonin starting on day 0.
as §4

[7] = 5-HT deficient (Tph1 KO) mice, vs PBS
[8] = Hbb^Th1/th1 mice, flow cytometry, day 13, vs PBS-treated mice
[9] = Hbb^th1/th1 mice, 21 days of injection, FIG. 5C

## C#CCOc1ccc2[nH]cc(CCN(CC#C)CC#C)c2c1 [Derivative A1, N-(prop-2-yn-1-yl)-N-(2-(5-(prop-2-yn-1-yloxy)-1H-indol-3-yl)ethyl) prop-2-yn-1-amine]
Hbb^Th1/th1 mice [1]
  RBC count: improved
  hemoglobin: improved
  hematocrit contents: improved
  iron content in bone marrow: relocate into cells of the bone marrow
  iron content in spleen: decreased the iron overload in spleen

## C#CCNCCc1c[nH]c2ccc(O)cc12.O=CO [Derivative A3, N-(2-(5-hydroxy-1H-indol-3-yl)ethyl)prop-2-yn-1-aminium formate]
[2]; FIG. 9B
  increased p62 expression: ~60%
[2]; FIGS. 9A-9B
  decreased FTH expression: ~40%
Tph1 KO mice [3]; [7]
  cell blood survival: increased
  erythroid expansion: restored
Tph1 KO mice [3]; Tph1 KO mice, 5 days of treatment, vs non-treated, FIG. 7A
  cellular iron misdistribution: corrects cellular iron misdistribution
Tph1 KO mice [3]; Tph1 KO mice, 21 days of IP injection, vs PBS, FIG. 7B
  cellular iron misdistribution: corrects cellular iron misdistribution
Tph1 KO mice [3]; Tph1 KO mice, 21 days, FIG. 7C
  pathological features of ineffective erythropoiesis: corrects
Tph1 KO mice [3]; Tph1 KO mice, 21 days, bone marrow, FIG. 7C
  iron overload (ferritin level): decrease iron overload
Tph1 KO mice [3]; Tph1 KO mice, IP for 5 and 21 days
  condition of the mice compared with controls: improved condition of the mice
Tph1 KO mice [4]
  anemic phenotype: ameliorate the anemic phenotype
  RBC count: improved
  hemoglobin: improved
  hematocrit contents: improved
  heme content in red blood cells: improved
  mean cellular volume (MCV): decrease
  iron content in spleen: mobilized out of the spleen
  iron content in bone marrow: relocate into cells of the bone marrow
Hbb^Th1/th1 mice [5]; Hbb^Th1/Th1 mice, vs PBS
  cell survival: increased
  erythroid expansion: restored
  maturation arrest: stopped
Hbb^Th1/th1 mice [5]; Hbb^Th1/th1 mice, Ip for 13 and 21 days, vs PBS
  condition of the mice compared with control: improved condition of the mice
Hbb^Th1/th1 mice [5]; Hbb^Th1/th1 mice, conclusion from flow cytometry
  pathological features of β-thalassemia: corrects pathological features of β-thalassemia
Hbb^Th1/th1 mice [5]; Hbb^Th1/th1 mice, day 13, vs control mice, FIG. 5D
  urinary ferritin levels: significant increase
Hbb^Th1/th1 mice [5]; [8]
  percentage Ter-119+CD71+FSC cells (III-IVa) in bone marrow: decrease
  percentage and absolute number of Ter-119+CD71−FSC cells (IVb-V) in bone marrow: increase
Hbb^Th1/th1 mice [5]; Hbb^th1/th1 mice, 13 days of injection, FIG. 5A
  bone marrow expansion: correction of bone marrow expansion
Hbb^Th1/th1 mice [5]; Hbb^th1/th1 mice, 13 days of injection, FIG. 5B
  iron overload (total body iron content): decrease in iron overload
Hbb^Th1/th1 mice [5]; Hbb^th1/th1 mice, 21 days of injection
  ratio immature/mature erythroblasts (Ratio Poly/Acido): restores
Hbb^Th1/th1 mice [5]; [9]
  iron overload (total body iron content): decrease iron overload
  number of erythroid progenitors: Decrease
  number of mature erythroid cells: Increase
[6]
  differentiation of erythroid progenitors: increases differentiation of erythroid progenitors
  immature/mature ratio: decrease
Hamp KO mice; day 5, FIG. 3B
  iron level in the liver: reduced
Hbb^Th1/th1 mice [1]
  RBC count: improved
  hemoglobin: improved
  hematocrit contents: improved
  iron content in bone marrow: relocate into cells of the bone marrow
  iron content in spleen: decreased the iron overload in spleen

## C#CCN(CC#C)CCc1c[nH]c2ccc(O)cc12 [Derivative A4, 3-(2-(di(prop-2-yn-1-yl)amino)ethyl)-1H-indol-5-ol]
Tph1 KO mice [4]
  anemic phenotype: ameliorate the anemic phenotype
  RBC count: improved
  hemoglobin: improved
  hematocrit contents: improved
  heme content in red blood cells: improved
  mean cellular volume (MCV): decrease
  iron content in spleen: mobilized out of the spleen
  iron content in bone marrow: relocate into cells of the bone marrow

## NCCc1c[nH]c2ccc(O)cc12 [serotonin, 5-hydroxytryptamine]
Tph1 KO mice [4]
  anemic phenotype: ameliorate the anemic phenotype
  RBC count: improved
  hemoglobin: improved
  hematocrit contents: improved
  heme content in red blood cells: improved
  mean cellular volume (MCV): decrease
  iron content in spleen: mobilized out of the spleen
  iron content in bone marrow: relocate into cells of the bone marrow
Hamp KO mice; day 5, FIG. 3A
  iron level in the blood: reduced
Hamp KO mice; day 5, FIG. 3C
  transferrin saturation: reduced
